According to ChEMBL document CHEMBL5113488, “Design, synthesis and antitumor activity study of a gemcitabine prodrug conjugated with a HDAC6 inhibitor” (Bioorg Med Chem Lett, 2022):
Calls of active or inactive are those of the source. No cut-off for these calls is given here.

Key:
MDA-MB-231 [1] = test: Antiproliferative activity against human MDA-MB-231 cells assessed as inhibition of cell growth pretreated with hENT1 inhibitor, dipyridamole at 10 uM followed by compound addition; format: functional, cell-based
SGC-7901 = test: Antiproliferative activity against human SGC-7901 cells assessed as inhibition of cell growth; format: functional, cell-based
MDA-MB-231 [2] = test: Antiproliferative activity against human MDA-MB-231 cells assessed as inhibition of cell growth incubated in presence of 10 uM imatinib; format: functional, cell-based
SK-OV-3 = test: Antiproliferative activity against human SK-OV-3 cells assessed as inhibition of cell growth; format: functional, cell-based
PANC-1 = test: Antiproliferative activity against human PANC-1 cells assessed as inhibition of cell growth; format: functional, cell-based
A549 = test: Antiproliferative activity against human A549 cells assessed as inhibition of cell growth; format: functional, cell-based
MDA-MB-231 [3] = test: Antiproliferative activity against human MDA-MB-231 cells assessed as inhibition of cell growth; format: functional, cell-based
Huh-7 = test: Antiproliferative activity against human Huh-7 cells assessed as inhibition of cell growth; format: functional, cell-based
HeLa = test: Antiproliferative activity against human HeLa cells assessed as inhibition of cell growth; format: functional, cell-based
4T1 [4] = test: Antitumor activity against mouse 4T1 cells implanted in mouse assessed as tumor growth inhibition at 10 mg/kg administered for 15 days relative to control; format: functional; conditions: 4T1, 360 h, time 15 day, read-out: TGI
4T1 [5] = test: Antiproliferative activity against mouse 4T1 cells assessed as inhibition of cell growth; format: functional, cell-based
HCT-116 = test: Antiproliferative activity against human HCT-116 cells assessed as inhibition of cell growth; format: functional, cell-based
Cytochrome P450 3A2 [6] = target: T1, Cytochrome P450 3A2 (Rattus norvegicus, UniProt P05183); test: Inhibition of CYP3A2-mediated metabolite formation in rat liver microsomes assessed as reduction in N-(1-((2R,4R,5R)-3,3-difluoro-4-hydroxy-5-(hydroxymethyl)tetrahydrofuran-2-yl)-2-oxo-1,2-dihydropyrimidin-4-yl)pentadecanamide metabolism; format: ADME, Microsome
T1 sequence (P05183 whole entry): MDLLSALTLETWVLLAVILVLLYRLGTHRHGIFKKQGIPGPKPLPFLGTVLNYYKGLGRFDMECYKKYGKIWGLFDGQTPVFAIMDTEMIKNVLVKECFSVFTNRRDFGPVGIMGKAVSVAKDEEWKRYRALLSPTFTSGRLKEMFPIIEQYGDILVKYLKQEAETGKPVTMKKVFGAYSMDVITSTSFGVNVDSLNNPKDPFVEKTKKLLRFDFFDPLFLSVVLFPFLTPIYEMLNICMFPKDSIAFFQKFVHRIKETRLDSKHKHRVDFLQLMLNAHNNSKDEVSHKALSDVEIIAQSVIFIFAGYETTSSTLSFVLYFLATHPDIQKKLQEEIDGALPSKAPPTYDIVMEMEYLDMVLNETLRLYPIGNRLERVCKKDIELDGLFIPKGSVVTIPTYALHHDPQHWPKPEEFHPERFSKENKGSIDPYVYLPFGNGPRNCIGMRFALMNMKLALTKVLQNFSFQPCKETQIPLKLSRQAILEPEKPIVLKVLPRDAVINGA

Cytochrome P450 1A2 = target: T2, Cytochrome P450 1A2 (Rattus norvegicus, UniProt P04799); test: Inhibition of CYP1A2 in rat liver microsomes using phenacetin as substrate; format: ADME, Microsome
T2 sequence (P04799 whole entry): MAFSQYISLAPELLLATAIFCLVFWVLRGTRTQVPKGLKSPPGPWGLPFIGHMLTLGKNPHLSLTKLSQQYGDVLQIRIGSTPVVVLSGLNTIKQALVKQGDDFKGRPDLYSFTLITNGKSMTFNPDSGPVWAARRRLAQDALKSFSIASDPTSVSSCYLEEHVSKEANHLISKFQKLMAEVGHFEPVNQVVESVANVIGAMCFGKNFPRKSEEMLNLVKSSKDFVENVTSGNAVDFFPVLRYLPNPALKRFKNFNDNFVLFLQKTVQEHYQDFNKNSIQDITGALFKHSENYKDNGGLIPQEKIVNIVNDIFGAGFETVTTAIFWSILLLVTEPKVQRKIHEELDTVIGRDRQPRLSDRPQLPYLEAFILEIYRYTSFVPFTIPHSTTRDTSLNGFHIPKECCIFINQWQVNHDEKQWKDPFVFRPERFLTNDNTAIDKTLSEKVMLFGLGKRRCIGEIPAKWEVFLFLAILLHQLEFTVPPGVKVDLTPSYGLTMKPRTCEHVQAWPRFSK

Cytochrome P450 2C6 = target: T3, Cytochrome P450 2C6 (Rattus norvegicus, UniProt P05178); test: Inhibition of CYP2C6 in rat liver microsomes using diclofenac as substrate; format: ADME, Microsome
T3 sequence (P05178 whole entry): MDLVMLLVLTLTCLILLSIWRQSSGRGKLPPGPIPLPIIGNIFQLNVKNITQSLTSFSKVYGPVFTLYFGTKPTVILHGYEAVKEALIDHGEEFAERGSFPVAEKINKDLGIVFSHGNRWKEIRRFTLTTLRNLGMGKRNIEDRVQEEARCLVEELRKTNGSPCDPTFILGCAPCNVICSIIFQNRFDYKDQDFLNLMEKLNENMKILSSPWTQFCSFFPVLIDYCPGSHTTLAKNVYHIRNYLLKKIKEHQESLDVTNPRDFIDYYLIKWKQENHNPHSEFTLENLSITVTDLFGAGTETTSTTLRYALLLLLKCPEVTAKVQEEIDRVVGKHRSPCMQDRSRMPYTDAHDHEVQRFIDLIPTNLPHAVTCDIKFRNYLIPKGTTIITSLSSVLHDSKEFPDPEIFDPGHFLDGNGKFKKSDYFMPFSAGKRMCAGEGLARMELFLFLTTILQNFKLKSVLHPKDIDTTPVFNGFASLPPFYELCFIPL

MDA-MB-231 [7] = test: Induction of DNA damage in human MDA-MB-231 cells assessed as increase in phospho-gamma-H2A.X expression level at 0.3 to 3 uM; format: functional, cell-based; conditions: dose 0.3-3 µM
[8] = Toxicity in mouse implanted with mouse 4T1 cells assessed as body weight loss at 5 to 10 mg/kg administered for 15 days; format: organism-based; conditions: 4t1, 360 h, dose 5-10 mg/kg, time 15 day
[9] = Toxicity in mouse implanted with mouse 4T1 cells assessed as pathological damage in kidney at 5 to 10 mg/kg administered for 15 days by H and E staining based analysis; format: organism-based; conditions: 4t1, 360 h, dose 5-10 mg/kg, time 15 day
[10] = Toxicity in mouse implanted with mouse 4T1 cells assessed as pathological damage in liver at 5 to 10 mg/kg administered for 15 days by H and E staining based analysis; format: organism-based; conditions: 4t1, 360 h, dose 5-10 mg/kg, time 15 day
Cytochrome P450 3A2 [11] = target: T1, Cytochrome P450 3A2; test: Inhibition of CYP3A2 in rat liver microsomes using midazolam as substrate; format: ADME, Microsome
Cytochrome P450 2E1 = Cytochrome P450 2E1 (Rattus norvegicus, UniProt P05182); test: Inhibition of CYP2E1 in rat liver microsomes using chlorzoxazone as substrate; format: ADME, Microsome
4T1 [12] = test: Antitumor activity against mouse 4T1 cells implanted in mouse assessed as tumor growth inhibition at 5 mg/kg administered for 15 days relative to control; format: functional; conditions: 4T1, 360 h, time 15 day, read-out: TGI
[13] = Toxicity in mouse implanted with mouse 4T1 cells assessed as pathological damage in heart at 5 to 10 mg/kg administered for 15 days by H and E staining based analysis; format: organism-based; conditions: 4t1, 360 h, dose 5-10 mg/kg, time 15 day
Cytochrome P450 2D1 = target: T4, Cytochrome P450 2D1 (Rattus norvegicus, UniProt P10633); test: Inhibition of CYP2D1 in rat liver microsomes using dextromethorphan as substrate; format: ADME, Microsome
T4 sequence (P10633 whole entry): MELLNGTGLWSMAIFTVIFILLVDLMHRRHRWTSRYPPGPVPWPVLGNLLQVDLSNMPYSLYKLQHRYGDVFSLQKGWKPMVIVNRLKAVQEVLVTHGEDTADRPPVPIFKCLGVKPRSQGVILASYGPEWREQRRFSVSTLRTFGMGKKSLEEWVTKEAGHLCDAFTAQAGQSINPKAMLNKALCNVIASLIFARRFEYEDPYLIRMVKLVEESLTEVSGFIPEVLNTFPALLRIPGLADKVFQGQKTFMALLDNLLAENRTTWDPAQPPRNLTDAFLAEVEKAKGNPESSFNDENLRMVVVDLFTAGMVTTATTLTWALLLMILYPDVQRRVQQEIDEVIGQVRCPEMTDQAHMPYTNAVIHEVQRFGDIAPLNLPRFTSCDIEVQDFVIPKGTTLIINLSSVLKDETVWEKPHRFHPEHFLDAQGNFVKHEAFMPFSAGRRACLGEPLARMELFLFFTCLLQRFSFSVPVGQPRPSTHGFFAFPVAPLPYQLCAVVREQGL

Chain of Cytochrome P450 2E1 (P05182 whole entry): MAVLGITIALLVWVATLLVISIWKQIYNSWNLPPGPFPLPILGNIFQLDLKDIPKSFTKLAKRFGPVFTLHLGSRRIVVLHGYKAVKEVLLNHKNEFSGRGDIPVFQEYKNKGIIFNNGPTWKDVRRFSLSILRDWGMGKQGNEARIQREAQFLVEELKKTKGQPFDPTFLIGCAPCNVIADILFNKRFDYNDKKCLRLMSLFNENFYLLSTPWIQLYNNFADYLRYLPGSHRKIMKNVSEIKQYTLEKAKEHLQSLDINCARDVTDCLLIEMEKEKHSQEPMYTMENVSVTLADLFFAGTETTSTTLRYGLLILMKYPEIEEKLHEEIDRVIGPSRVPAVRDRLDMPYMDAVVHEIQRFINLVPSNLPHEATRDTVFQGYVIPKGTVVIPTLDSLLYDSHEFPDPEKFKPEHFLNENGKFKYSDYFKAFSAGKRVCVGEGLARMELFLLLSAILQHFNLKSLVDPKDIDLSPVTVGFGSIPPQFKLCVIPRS

Row | Compound | IC50 (MDA-MB-231 [1]) | IC50 (SGC-7901) | IC50 (MDA-MB-231 [2]) | IC50 (SK-OV-3) | IC50 (PANC-1) | IC50 (A549) | IC50 (MDA-MB-231 [3]) | IC50 (Huh-7) | IC50 (HeLa) | inhibition in vivo at 10 mg/kg (4T1 [4]) | IC50 (4T1 [5]) | IC50 (HCT-116) | also measured
1 | Nc1ccn([C@@H]2O[C@H](CO)[C@@H](O)C2(F)F)c(=O)n1 [GEMCITABINE] | 7.21 µM | 9.32 µM | 0.818 µM | 0.44 µM | 1.34 µM | 0.38 µM | 2.01 µM | 0.74 µM | 1.99 µM | 58.7% | 7.17 µM | 3.05 µM | 
2 | CC(=O)N1CCN(c2ccc(OCC3COC(Cn4ccnc4)(c4ccc(Cl)cc4Cl)O3)cc2)CC1 (stereo unspecified) [KETOCONAZOLE] |  |  |  |  |  |  |  |  |  |  |  |  | inhibition (INH) (Cytochrome P450 3A2 [6]): Active
3 | CCCCCCCCCCCCCCC(=O)Nc1ccn([C@@H]2O[C@H](CO)[C@@H](O)C2(F)F)c(=O)n1 | 0.17 µM | 3.7 µM | 0.072 µM | 0.62 µM | 1.08 µM | 0.14 µM | 0.14 µM | 0.12 µM | 0.43 µM | 83.8% | 0.66 µM | 0.3 µM | Ki (Cytochrome P450 1A2): 127 µM; Ki (Cytochrome P450 2C6): 203 µM; Activity (MDA-MB-231 [7]): Active; Activity [8]: Non-Toxic; Activity [9]: Non-Toxic; Activity [10]: Non-Toxic; Ki (Cytochrome P450 3A2 [11]): 52.6 µM; Ki (Cytochrome P450 2E1): 196 µM; inhibition in vivo at 5 mg/kg (4T1 [12]): 73.2%; Activity [13]: Non-Toxic; Ki (Cytochrome P450 2D1): 179 µM
